Source: US5204475A, “Substituted 3-aminosydnone imines and salts thereof” (Cassella Aktiengesellschaft, priority 1990, dated 1993)

Test system: spiral strips of the pulmonary artery of the guinea-pig
Assay: Relaxation of potassium-depolarised, CaCl2-contracted spiral strips of the pulmonary artery of the guinea-pig (modified method of Godfraind and Kaba and of Schuman et al.)
Conditions: depolarised with 40 mmol/1 potassium, contraction by 0.5 mmol/1 CaCl2; for IC50: Cavia porcellus, cumulative addition, average of 4 to 6 vessel strips, read-out: IC50 (concentration of the test substance which inhibits the contraction by 50%)
Description: The pharmacological action of the compounds of the formula I was determined by a modified method of Godfraind and Kaba (Arch. Int. Pharmacodyn. Ther. I96, (Suppl) 35 to 49, 1972) and of Schuman et al. (Naunyn-Schmiedeberg's Arch Pharmacol. 289, 409 to 418, 1975). In this connection, spiral strips of the pulmonary artery of the guinea-pig are depolarised with 40 mmol/1 of potassium after equilibration in calcium-free Tyrode solution. An addition of 0.5 mmol/1 of CaCl2 then induces a contraction. The relaxing action of the test substance is determined by cumulative addition in 1/2 log 10 stepped concentrations. From the concentration-effect curve (abscissa: -log mol/1 of test substance, ordinate: % inhibition of the maximum contraction, average value of 4 to 6 vessel strips), the concentration of the test substance is determined which inhibits the contraction by 50% (=IC50, mol/1). The duration of action of the test substance is given by the time which is needed after the addition of the test substance until the starting value is obtained again.

## Cl.N=c1c[n+](N2CCC(C(=O)O)CC2)[n-]o1 [Example 2, 3-(4-Carboxypiperidino)sydnone imine hydrochloride]
  IC50: 24 µM
  Duration of action in minutes (time needed after addition of the test substance until the starting value is obtained again): > 300 min

## Cl.N=c1c[n+](N2CCC[C@H]2C(=O)O)[n-]o1 [Example 3, (S)-3-(2-Carboxypyrrolidino)sydnone imine hydrochloride]
  IC50: 20 µM
  Duration of action in minutes (time needed after addition of the test substance until the starting value is obtained again): > 300 min

## Cl.N=c1c[n+](N2CCCCC2C(=O)O)[n-]o1 (stereo not drawn) [Example 1, 3-(2-Carboxypiperidino)sydnone imine hydrochloride]
  IC50: 6 µM
  Duration of action in minutes (time needed after addition of the test substance until the starting value is obtained again): > 300 min
